Reference: patent publication US20110237499A1, “HYBRID TRIPYRROLE-OCTAARGININE COMPOUNDS AND THEIR USE AS MEDICAMENT IN THE TREATMENT OF CANCER AND MICROBIAL ILLNESSES” (priority 2008, published 2011)
Square brackets hold non-standard residues; d marks the D form. Peptide text beside a SMILES is read from it. * marks the point of attachment. FITC = O=C1OC2(c3ccc(O)cc3Oc3cc(O)ccc32)c2ccc(NC(=S)*)cc21; Ahx = NCCCCCC(=O)O

Legend:
[1] = system: HeLa cells; assay: Cellular internalization assay in live HeLa cells (fluorescence microscopy); format: cell-based
Protocol: The internalization assays were performed in live HeLa cells.
The internalization assays were performed in live HeLa cells, recording the fluorescence images after 30 min, 90 min and 3 h.

[2] = system: HeLa 229 cells; assay: cells; format: cell-based; settings: 48 hours incubation
Protocol: Preliminary cytotoxicity studies have been performed using HeLa 229 cells, to verify the possible effect of the presence of octaarginine chain on the biological activity. These studies have been performed following an incubation during 48 hours and they were later evaluated by cell staining by crystal violet and later acetylation.

| SMILES | extent of internalization (intracellular fluorescence) ([1]; images after 30 min, 90 min and 3 h) | intracellular localization of the fluorescence signal ([1]; incubation 90 min at 37° C., FIG. 2) | % Inhibition of the cellular growth ([2]; concentration 5.87 μM) [%] | inhibition at 176.5 µM ([2]; Homo sapiens, HeLa 229, concentration 176.5 μM, read-out: % Inhibition of the cellular growth) [%] |
| --- | --- | --- | --- | --- |
| N=C(N)NCCC[C@H](NC(=O)[C@H](CCCNC(=N)N)NC(=O)[C@H](CCCNC(=N)N)NC(=O)[C@H](CCCNC(=N)N)NC(=O)[C@H](CCCNC(=N)N)NC(=O)[C@H](CCCNC(=N)N)NC(=O)[C@H](CCCNC(=N)N)NC(=O)[C@H](CCCNC(=N)N)NC(=O)CCCCCNC(=O)[C@H](CCCCN)NC(=O)CCCCCNC(=S)Nc1ccc2c(c1)C(=O)OC21c2ccc(O)cc2Oc2cc(O)ccc21)C(N)=O [1B] ({FITC-Ahx}-K[Ahx]RRRRRRRR-NH2) | the fluorescence is intense | exclusively localized in the cytoplasm | 1 ± 2 |  |
| CC(=O)Nc1c[nH]c(C(=O)Nc2cc(C(=O)Nc3cc(C(=O)NCCCN(C)C)n(C)c3)n(C)c2)c1 [compound 9] |  |  |  | 4 ± 3 |
